# Test results reported in ChEMBL document CHEMBL2074574, “The interaction and transport of beta-lactam antibiotics with the cloned rat renal organic anion transporter 1” (J Pharmacol Exp Ther, 1999).
# Legend:
# [1] = molecular target: T1, Solute carrier family 22 member 6 (Rattus norvegicus, UniProt O35956); assay: TP_TRANSPORTER: inhibition of PAH uptake (PAH: 2 uM, Amoxicillin: 2000 uM) in Xenopus laevis oocytes; assay type: functional, cell-based; details: oocyte
# T1 sequence (O35956 whole entry): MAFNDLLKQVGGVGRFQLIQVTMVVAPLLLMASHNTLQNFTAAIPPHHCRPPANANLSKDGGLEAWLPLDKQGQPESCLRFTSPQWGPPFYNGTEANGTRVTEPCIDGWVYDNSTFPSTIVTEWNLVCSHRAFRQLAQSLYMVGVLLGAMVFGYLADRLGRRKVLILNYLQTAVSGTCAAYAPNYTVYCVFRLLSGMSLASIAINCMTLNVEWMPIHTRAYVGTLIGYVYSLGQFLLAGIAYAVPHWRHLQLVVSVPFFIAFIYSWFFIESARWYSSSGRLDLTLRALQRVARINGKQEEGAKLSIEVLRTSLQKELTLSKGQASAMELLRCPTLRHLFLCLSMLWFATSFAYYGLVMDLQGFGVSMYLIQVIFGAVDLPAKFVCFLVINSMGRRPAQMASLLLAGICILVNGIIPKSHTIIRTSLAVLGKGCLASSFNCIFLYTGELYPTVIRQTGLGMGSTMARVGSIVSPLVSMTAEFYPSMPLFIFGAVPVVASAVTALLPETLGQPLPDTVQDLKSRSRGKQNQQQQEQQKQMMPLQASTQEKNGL
# [2] = molecular target: T1, Solute carrier family 22 member 6; assay: TP_TRANSPORTER: inhibition of PAH uptake (PAH: 2 uM, Gentamicin: 2000 uM) in Xenopus laevis oocytes; assay type: functional, cell-based; details: oocyte
# [3] = molecular target: T1, Solute carrier family 22 member 6; assay: TP_TRANSPORTER: inhibition of PAH uptake (PAH: 2 uM, Cinoxacin: 2000 uM) in Xenopus laevis oocytes; assay type: functional, cell-based; details: oocyte
# [4] = molecular target: T1, Solute carrier family 22 member 6; assay: TP_TRANSPORTER: inhibition of PAH uptake (PAH: 2 uM, Streptomycin: 2000 uM) in Xenopus laevis oocytes; assay type: functional, cell-based; details: oocyte
# [5] = molecular target: T1, Solute carrier family 22 member 6; assay: TP_TRANSPORTER: inhibition of PAH uptake (PAH: 2 uM, Norfloxacin: 2000 uM) in Xenopus laevis oocytes; assay type: functional, cell-based; details: oocyte
# [6] = molecular target: T1, Solute carrier family 22 member 6; assay: TP_TRANSPORTER: inhibition of PAH uptake (PAH: 2 uM, Cloxacillin: 2000 uM) in Xenopus laevis oocytes; assay type: functional, cell-based; details: oocyte
# [7] = molecular target: T1, Solute carrier family 22 member 6; assay: TP_TRANSPORTER: inhibition of PAH uptake (PAH: 2 uM, Vancomycin: 2000 uM) in Xenopus laevis oocytes; assay type: functional, cell-based; details: oocyte
# [8] = molecular target: T1, Solute carrier family 22 member 6; assay: TP_TRANSPORTER: inhibition of PAH uptake in Xenopus laevis oocytes; assay type: functional, cell-based, Oocyte
# [9] = molecular target: T1, Solute carrier family 22 member 6; assay: TP_TRANSPORTER: inhibition of PAH uptake (PAH: 2 uM, OFLX: 2000 uM) in Xenopus laevis oocytes; assay type: functional, cell-based; details: oocyte
# [10] = molecular target: T1, Solute carrier family 22 member 6; assay: TP_TRANSPORTER: inhibition of PAH uptake (PAH: 2 uM, Nafcillin: 2000 uM) in Xenopus laevis oocytes; assay type: functional, cell-based; details: oocyte
# [11] = molecular target: T1, Solute carrier family 22 member 6; assay: TP_TRANSPORTER: inhibition of PAH uptake (PAH: 2 uM, Ceftazidime: 2000 uM) in Xenopus laevis oocytes; assay type: functional, cell-based; details: oocyte
# [12] = molecular target: T1, Solute carrier family 22 member 6; assay: TP_TRANSPORTER: inhibition of PAH uptake (PAH: 2 uM, Cefsulodin: 2000 uM) in Xenopus laevis oocytes; assay type: functional, cell-based; details: oocyte
# [13] = molecular target: T1, Solute carrier family 22 member 6; assay: TP_TRANSPORTER: inhibition of PAH uptake (PAH: 2 uM, Chloramphenicol: 2000 uM) in Xenopus laevis oocytes; assay type: functional, cell-based; details: oocyte
# [14] = molecular target: T1, Solute carrier family 22 member 6; assay: TP_TRANSPORTER: inhibition of PAH uptake (PAH: 2 uM, Piperacillin: 2000 uM) in Xenopus laevis oocytes; assay type: functional, cell-based; details: oocyte
molecule,measurement,setting,value
CC1(C)S[C@@H]2[C@H](NC(=O)[C@H](N)c3ccc(O)cc3)C(=O)N2[C@H]1C(=O)O [AMOXICILLIN],Activity,[1],inhibitor [(at a rough estimate) 20 % of control]
GENTAMICIN,Activity,[2],is not an inhibitor [-]
CCn1nc(C(=O)O)c(=O)c2cc3c(cc21)OCO3 [CINOXACIN],Activity,[3],inhibitor [(at a rough estimate) 5 % of control]
[H]/N=C(/N)N[C@H]1[C@H](O)[C@@H](O)[C@H](O[C@@H]2O[C@@H](C)[C@](O)(C=O)[C@H]2O[C@@H]2O[C@@H](CO)[C@H](O)[C@@H](O)[C@@H]2NC)[C@@H](N/C(N)=N\[H])[C@@H]1O [STREPTOMYCIN],Activity,[4],is not an inhibitor [-]
CCn1cc(C(=O)O)c(=O)c2cc(F)c(N3CCNCC3)cc21 [NORFLOXACIN],Activity,[5],is not an inhibitor [-]
Cc1onc(-c2ccccc2Cl)c1C(=O)N[C@@H]1C(=O)N2[C@@H]1SC(C)(C)[C@@H]2C(=O)O [CLOXACILLIN],Activity,[6],inhibitor [(at a rough estimate) 5 % of control]
CN[C@H](CC(C)C)C(=O)N[C@H]1C(=O)N[C@@H](CC(N)=O)C(=O)N[C@H]2C(=O)N[C@H]3C(=O)N[C@H](C(=O)N[C@H](C(=O)O)c4cc(O)cc(O)c4-c4cc3ccc4O)[C@H](O)c3ccc(c(Cl)c3)Oc3cc2cc(c3O[C@@H]2O[C@H](CO)[C@@H](O)[C@H](O)[C@H]2O[C@H]2C[C@](C)(N)[C@H](O)[C@H](C)O2)Oc2ccc(cc2Cl)[C@H]1O [VANCOMYCIN],Activity,[7],is not an inhibitor [-]
CC1=C(C(=O)O)N2C(=O)[C@@H](NC(=O)[C@H](N)c3ccccc3)[C@H]2SC1 [CEPHALEXIN ANHYDROUS],Ki,[8],2310 µM
CC1COc2c(N3CCN(C)CC3)c(F)cc3c(=O)c(C(=O)O)cn1c23 (centres undefined) [OFLOXACIN],Activity,[9],is not an inhibitor [-]
CCOc1ccc2ccccc2c1C(=O)N[C@@H]1C(=O)N2[C@@H]1SC(C)(C)[C@@H]2C(=O)O [NAFCILLIN],Activity,[10],inhibitor [(at a rough estimate) <5 % of control]
CC(C)(O/N=C(\C(=O)N[C@@H]1C(=O)N2C(C(=O)[O-])=C(C[n+]3ccccc3)CS[C@H]12)c1csc(N)n1)C(=O)O [CEFTAZIDIME],Activity,[11],inhibitor [(at a rough estimate) 45 % of control]
NC(=O)c1cc[n+](CC2=C(C(=O)O)N3C(=O)[C@@H](NC(=O)[C@@H](c4ccccc4)S(=O)(=O)[O-])[C@H]3SC2)cc1 [CEFSULODIN],Activity,[12],inhibitor [(at a rough estimate) 10 % of control]
O=C(N[C@H](CO)[C@H](O)c1ccc([N+](=O)[O-])cc1)C(Cl)Cl [CHLORAMPHENICOL],Activity,[13],inhibitor [(at a rough estimate) 75% of control]
CCN1CCN(C(=O)N[C@@H](C(=O)N[C@@H]2C(=O)N3[C@@H]2SC(C)(C)[C@@H]3C(=O)O)c2ccccc2)C(=O)C1=O [PIPERACILLIN],Activity,[14],inhibitor [(at a rough estimate) 5 % of control]
